Literature values, collected in patent US11298325B2, “Pharmaceutical compositions of pimobendan” (Boehringer Ingelheim Vetmedica GmbH, priority 2013, dated 2022).

Experiments:
[1] = low solubility and low permeability
[2] = pH 5

Class in the Biopharmaceutics Classification Systems [1]: Class IV
Solubility in water [2]: about 1 mg/liter
SMILES: COc1ccc(-c2nc3ccc(C4=NNC(=O)CC4C)cc3[nH]2)cc1 (centres unmarked) [pimobendan]
